Experimental data taken from ChEMBL document CHEMBL3098026, “Synthesis and SAR of novel isoxazoles as potent c-jun N-terminal kinase (JNK) inhibitors” (Bioorg Med Chem Lett, 2014).

Tests used:
Rattus norvegicus = test: Oral bioavailability in Sprague-Dawley rat at 2 mg/kg; assay type: ADME, organism-based; settings: in vivo
[1] = Cmax in Sprague-Dawley rat at 2 mg/kg, po; assay type: ADME, organism-based; parameters: dose 2 mg/kg, route oral; settings: in vivo
[2] = AUC in Sprague-Dawley rat at 2 mg/kg, po; assay type: ADME, organism-based; parameters: dose 2 mg/kg, route oral; settings: plasma
[3] = Volume of distribution in Sprague-Dawley rat at 1 mg/kg, iv and 2 mg/kg, po; assay type: ADME, organism-based; settings: in vivo
[4] = Half life in Sprague-Dawley rat at 1 mg/kg, iv and 2 mg/kg, po; assay type: ADME, organism-based; settings: in vivo
[5] = Plasma clearance in Sprague-Dawley rat at 1 mg/kg, iv and 2 mg/kg, po; assay type: ADME, organism-based
[6] = Stability in human microsomes; assay type: ADME, Microsome

Row | Compound | F (Rattus norvegicus) [%] | Cmax [1] [nM] | AUC [2] [µM·h] | Vd [3] [L/kg] | half-life [4] [h] | clearance [5] [mL/min/kg] | Stability [6]
1 | Cc1ncn(-c2ccc(Nc3cc(-c4nocc4-c4cn[nH]c4C)ccn3)cc2)n1 | 12 | 300 | 0.7 | 0.4 | 1.8 | 13 | 
2 | Oc1onc(-c2ccnc(Nc3ccc(N4CCOCC4)cc3)c2)c1-c1ccc(F)cc1 |  |  |  |  |  |  | Unstable
3 | Cc1ncn(-c2ccc(Nc3cc(-c4nocc4-c4cnn(C)c4)ccn3)cc2)n1 | 37 | 1500 | 5 | 0.4 | 1.5 | 6 | 
